Measurements reported in article PMC4311625, “Structural determinants for binding to angiotensin converting enzyme 2 (ACE2) and angiotensin receptors 1 and 2” (Frontiers in Pharmacology, 2015).
Read-outs that look alike come from different tables or passages of the source. Peptide text beside a SMILES is read from it.

Molecular target: ACE2 (Homo sapiens, UniProt Q9BYF1)
Experiment: ACE2 quenched fluorescence substrate (QFS) inhibition assay
Assay type: biochemical
Protocol: Angiotensin converting enzyme 2 QFS assays were performed for 1 h in 50 uM QFS, 1 M NaCl, 100 mM Tris-Cl, pH 6.5 at 37∘C on a BMG LabTechnologies (Offenburg, Germany), FLUOStar Optima in a 96 well-plate. Subsequent data analysis determined the inhibition of native AngII, its analogs and C-terminal peptides compared to the ACE2 QFS substrate [MCA-APK(DNP)-OH, [Vickers et al., 2002]]. […] Three controls were included in each ACE2 QFS assay; AngII (100 and 10 μM), IHPF (100 μM) and a known ACE2 inhibitor (1 nM; Millennium Pharmaceuticals, Cambridge, MA, USA). QFS assay results were accepted when ACE2 inhibition by AngII (10 μM) was 80 ± 5%, IHPF was 65 ± –5% and the ([Qian et al., 1999]) ‘Millennium Inhibitor’ was 70 ± –5%. Acceptable coefficients of variation (CV; standard deviation/mean × 100) for sample triplicates were <7%.
A library of 40 tetrapeptides based on the four C-terminal residues of Ang II (Ile-His-Pro-Phe/IHPF) was generated and screened for ACE2 binding at 100 μM in order to identify key residues of the C-terminus of Ang II involved in binding to the ACE2 active site. […] Several substitutions (Val, Tyr, Ala, Gly, Phe, Trp, Pro, His, Ile, and Leu) were made in order to further probe the highly hydrophobic and cyclic specificity of the C-terminus of Ang II. A β-napthalene amino acid (Nth) derivative was used as a highly hydrophobic non-natural cyclic residue substitute, and Arg and Lys were substituted for histidine at the second position from the N-terminus of the tetrapeptide to determine if positive charge or other structural or positional requirements were important.

[1] = peptide 100 μM, 50 uM QFS MCA-APK(DNP)-OH, 1 M NaCl, 100 mM Tris-Cl pH 6.5, 37 °C, 1 h, fluorescence, triplicate, read-out: ACE2 inhibition of single substitution analogs of the C-terminal of AngII (Table 1)
[2] = read-out: ACE2 inhibition of terminally modified IHPF analogs, 100 μM (Table 3), peptide 100 μM, 50 uM QFS, 1 M NaCl, 100 mM Tris-Cl pH 6.5, 37 °C, 1 h
[3] = peptide 100 μM, 50 uM QFS, 1 M NaCl, 100 mM Tris-Cl pH 6.5, 37 °C, 1 h, triplicate, read-out: Inhibition (%) of ACE2, single and multiple residue substitution analogs (Table 2)
[4] = read-out: ACE2 inhibition of terminally modified IHPF analogs, 10 μM (Table 3, in brackets), peptide 10 μM, 50 uM QFS, 1 M NaCl, 100 mM Tris-Cl pH 6.5, 37 °C, 1 h
[5] = pH 6.5, read-out: ACE2 inhibition of terminally modified IHPF analogs, 100 μM (Table 3)
[6] = 1 h, pH 6.5, read-out: Inhibition (%) of ACE2, single and multiple residue substitution analogs (Table 2)

Chain of ACE2 (Q9BYF1 18-805, species assumed): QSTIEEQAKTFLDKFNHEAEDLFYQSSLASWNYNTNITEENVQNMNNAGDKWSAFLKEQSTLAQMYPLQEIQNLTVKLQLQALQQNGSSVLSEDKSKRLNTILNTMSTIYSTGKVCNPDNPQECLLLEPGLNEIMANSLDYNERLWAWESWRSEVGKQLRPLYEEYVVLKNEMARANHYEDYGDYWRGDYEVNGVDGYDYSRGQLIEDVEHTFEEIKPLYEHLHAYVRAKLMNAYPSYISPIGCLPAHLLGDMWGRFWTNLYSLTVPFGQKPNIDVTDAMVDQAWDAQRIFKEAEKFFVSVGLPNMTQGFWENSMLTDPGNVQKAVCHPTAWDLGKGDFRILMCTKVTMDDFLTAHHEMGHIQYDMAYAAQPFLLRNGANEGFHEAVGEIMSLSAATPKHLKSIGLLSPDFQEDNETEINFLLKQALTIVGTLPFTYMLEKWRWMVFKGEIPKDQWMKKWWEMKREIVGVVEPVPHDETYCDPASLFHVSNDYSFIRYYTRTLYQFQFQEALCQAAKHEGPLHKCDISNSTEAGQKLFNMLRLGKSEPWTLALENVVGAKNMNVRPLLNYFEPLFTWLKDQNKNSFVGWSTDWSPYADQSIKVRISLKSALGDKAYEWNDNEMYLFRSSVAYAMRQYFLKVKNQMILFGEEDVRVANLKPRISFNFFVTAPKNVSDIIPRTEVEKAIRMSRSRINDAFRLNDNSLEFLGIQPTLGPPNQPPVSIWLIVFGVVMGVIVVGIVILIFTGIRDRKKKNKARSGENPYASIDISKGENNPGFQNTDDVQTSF

| SMILES | inhibition at 100 µM [1] [%] | inhibition at 100 µM [2] [%] | further results |
| --- | --- | --- | --- |
| CC[C@H](C)[C@H](N)C(=O)N[C@@H](Cc1c[nH]cn1)C(=O)N[C@@H](Cc1c[nH]c2ccccc12)C(=O)N[C@@H](Cc1ccccc1)C(=O)O [IHWF] (H-IHWF-OH) | 0 | – | – |
| CC[C@H](C)[C@H](N)C(=O)N[C@@H](Cc1c[nH]cn1)C(=O)N[C@@H](Cc1c[nH]cn1)C(=O)N[C@@H](Cc1ccccc1)C(=O)O [IHHF] (H-IHHF-OH) | 14 | – | – |
| CC[C@H](C)[C@H](N)C(=O)N[C@@H](Cc1c[nH]cn1)C(=O)N1CCC[C@H]1C(=O)N[C@@H](Cc1c[nH]c2ccccc12)C(=O)O [IHPW] (H-IHPW-OH) | 57 | – | – |
| CC[C@H](C)[C@H](N)C(=O)N[C@@H](Cc1c[nH]cn1)C(=O)N1CCC[C@H]1C(=O)N[C@@H](CC(C)C)C(=O)O [IHPL] (H-IHPL-OH) | 48 | – | – |
| CC[C@H](C)[C@H](N)C(=O)N[C@@H](Cc1c[nH]cn1)C(=O)N[C@@H](Cc1ccccc1)C(=O)N[C@@H](Cc1ccccc1)C(=O)O [IHFF] (H-IHFF-OH) | 0 | – | – |
| CC[C@H](C)[C@H](N)C(=O)N[C@@H](Cc1c[nH]cn1)C(=O)N1CCC[C@H]1C(=O)N[C@@H](Cc1ccccc1)C(N)=O [C-amidated IHPF] (H-IHPF-NH2) | – | 18 | – |
| CC[C@H](C)[C@H](N)C(=O)N[C@@H](Cc1c[nH]cn1)C(=O)NCC(=O)N[C@@H](Cc1ccccc1)C(=O)O [IHGF] (H-IHGF-OH) | 0 | – | – |
| CC(C)[C@H](N)C(=O)N[C@@H](Cc1c[nH]cn1)C(=O)N[C@H](C(=O)N[C@@H](Cc1ccccc1)C(=O)O)C(C)C [VHVF] (H-VHVF-OH) | – | 85 | inhibition at 100 µM [3]: 85%; inhibition at 10 µM [4]: 37% |
| CC[C@H](C)[C@H](N)C(=O)N[C@@H](Cc1c[nH]cn1)C(=O)N1CCC[C@H]1C(=O)NCC(=O)O [IHPG] (H-IHPG-OH) | 41 | – | – |
| CC[C@H](C)[C@H](N)C(=O)N[C@@H](Cc1c[nH]cn1)C(=O)N[C@H](C(=O)N[C@@H](Cc1ccccc1)C(=O)O)[C@@H](C)CC [IHIF] (H-IHIF-OH) | 44 | – | – |
| CC(=O)N[C@H](C(=O)N[C@@H](Cc1ccc(O)cc1)C(=O)N1CCC[C@H]1C(=O)N[C@@H](Cc1ccccc1)C(N)=O)C(C)C [N-acetylated/C-amidated VYPF] (Ac-VYPF-NH2) | – | – | inhibition at 100 µM [5]: 30% |
| CC[C@H](C)[C@H](N)C(=O)N[C@@H](Cc1ccc(O)cc1)C(=O)N1CCC[C@H]1C(=O)N[C@@H](Cc1ccccc1)C(N)=O [C-amidated IYPF] (H-IYPF-NH2) | – | – | inhibition at 100 µM [5]: 8% |
| CC(C)[C@H](N)C(=O)N[C@@H](Cc1ccc(O)cc1)C(=O)N1CCC[C@H]1C(=O)N[C@@H](Cc1ccccc1)C(N)=O [C-amidated VYPF] (H-VYPF-NH2) | – | – | inhibition at 100 µM [5]: 25% |
| CC[C@H](C)[C@H](N)C(=O)N[C@@H](Cc1ccc(O)cc1)C(=O)N[C@H](C(=O)N[C@@H](Cc1ccccc1)C(=O)O)C(C)C [IYVF] (H-IYVF-OH) | – | – | inhibition at 100 µM [3]: 77% |
| O=C(O)[C@H](Cc1ccccc1)NC(=O)[C@@H]1CCCN1C(=O)[C@H](Cc1ccc(O)cc1)NC(=O)[C@@H]1CCCN1 [PYPF] (H-PYPF-OH) | – | – | inhibition at 100 µM [6]: 93%; inhibition at 10 µM (pH 6.5, read-out: ACE2 inhibition of terminally modified IHPF analogs, 10 μM (Table 3, in brackets)): 50%; inhibition at 100 µM [5]: 93% |
| CC(=O)N1CCC[C@H]1C(=O)N[C@@H](Cc1c[nH]cn1)C(=O)N1CCC[C@H]1C(=O)N[C@@H](Cc1ccccc1)C(=O)O [N-acetylated PHPF] (Ac-PHPF-OH) | – | 57 | – |

| SMILES | inhibition at 100 µM [1] [%] | inhibition at 100 µM [2] [%] | further results |
| --- | --- | --- | --- |
| CC(C)[C@H](N)C(=O)N[C@@H](Cc1ccc(O)cc1)C(=O)N1CCC[C@H]1C(=O)N[C@@H](Cc1ccccc1)C(=O)O [VYPF] (H-VYPF-OH) | – | – | inhibition at 100 µM [6]: 90% |
| CC[C@H](C)[C@H](NC(C)=O)C(=O)N[C@@H](Cc1ccc(O)cc1)C(=O)N1CCC[C@H]1C(=O)N[C@@H](Cc1ccccc1)C(N)=O [N-acetylated/C-amidated IYPF] (Ac-IYPF-NH2) | – | 18 | – |
| CC[C@H](C)[C@H](NC(C)=O)C(=O)N[C@@H](Cc1ccc(O)cc1)C(=O)N1CCC[C@H]1C(=O)N[C@@H](Cc1ccccc1)C(=O)O [N-acetylated IYPF] (Ac-IYPF-OH) | – | 93 | inhibition at 10 µM [4]: 62% |
| CC[C@H](C)[C@H](N)C(=O)N[C@@H](Cc1c[nH]cn1)C(=O)N[C@@H](CC(C)C)C(=O)N[C@@H](Cc1ccccc1)C(=O)O [IHLF] (H-IHLF-OH) | 0 | – | – |
| CC[C@H](C)[C@H](N)C(=O)N[C@H](C(=O)N1CCC[C@H]1C(=O)N[C@@H](Cc1ccccc1)C(=O)O)[C@@H](C)CC [IIPF] (H-IIPF-OH) | 32 | – | – |
| CC[C@H](C)[C@H](NC(C)=O)C(=O)N[C@@H](Cc1c[nH]cn1)C(=O)N1CCC[C@H]1C(=O)N[C@@H](Cc1ccccc1)C(N)=O [N-acetylated/C-amidated IHPF] (Ac-IHPF-NH2) | – | 26 | – |
| CC[C@H](C)[C@H](NC(C)=O)C(=O)N[C@@H](Cc1c[nH]cn1)C(=O)N1CCC[C@H]1C(=O)N[C@@H](Cc1ccccc1)C(=O)O [N-acetylated IHPF] (Ac-IHPF-OH) | – | 87 | inhibition at 10 µM [4]: 41% |
| CC(=O)N[C@H](C(=O)N[C@@H](Cc1c[nH]cn1)C(=O)N[C@H](C(=O)N[C@@H](Cc1ccccc1)C(=O)O)C(C)C)C(C)C [N-acetylated VHVF] (Ac-VHVF-OH) | – | 76 | inhibition at 10 µM [4]: 31% |
| CC[C@H](C)[C@H](N)C(=O)N[C@@H](Cc1c[nH]cn1)C(=O)N1CCC[C@H]1C(=O)N[C@@H](Cc1ccccc1)C(=O)O [IHPF, Ile-His-Pro-Phe, reference compound] (H-IHPF-OH) | 62 | 66 | inhibition at 10 µM [4]: 22% |
| CC[C@H](C)[C@H](N)C(=O)N[C@H](C(=O)N1CCC[C@H]1C(=O)N[C@@H](Cc1ccccc1)C(=O)O)C(C)C [IVPF] (H-IVPF-OH) | 28 | – | – |
| N[C@@H](Cc1ccccc1)C(=O)N[C@@H](Cc1c[nH]cn1)C(=O)N1CCC[C@H]1C(=O)N[C@@H](Cc1ccccc1)C(=O)O [FHPF] (H-FHPF-OH) | 48 | – | – |
| NC(=O)[C@H](Cc1ccccc1)NC(=O)[C@@H]1CCCN1C(=O)[C@H](Cc1c[nH]cn1)NC(=O)[C@@H]1CCCN1 [C-amidated PHPF] (H-PHPF-NH2) | – | 1 | – |
| N[C@@H](Cc1c[nH]c2ccccc12)C(=O)N[C@@H](Cc1c[nH]cn1)C(=O)N1CCC[C@H]1C(=O)N[C@@H](Cc1ccccc1)C(=O)O [WHPF] (H-WHPF-OH) | 0 | – | – |
| CC[C@H](C)[C@H](N)C(=O)N[C@@H](Cc1c[nH]c2ccccc12)C(=O)N1CCC[C@H]1C(=O)N[C@@H](Cc1ccccc1)C(=O)O [IWPF] (H-IWPF-OH) | 40 | – | – |
| CC[C@H](C)[C@H](N)C(=O)N[C@@H](Cc1ccccc1)C(=O)N1CCC[C@H]1C(=O)N[C@@H](Cc1ccccc1)C(=O)O [IFPF] (H-IFPF-OH) | 0 | – | – |
| C[C@H](N)C(=O)N[C@@H](Cc1c[nH]cn1)C(=O)N1CCC[C@H]1C(=O)N[C@@H](Cc1ccccc1)C(=O)O [AHPF] (H-AHPF-OH) | 59 | – | – |
